Data reported in PubChem BioAssay AID328 (DTP/NCI, 2004).
Several values for one entry are separate records, joined by “and”; a condition that tells them apart may be missing. Equal entries are not always repeated. Toxic doses and inconclusive results are not listed.

Test system: BDF1 mice, P388 leukemia ip, median survival T/C
Experiment: NCI In Vivo Anticancer Drug Screen. Data for tumor model P388 Leukemia (intraperitoneal) in B6D2F1 (BDF1) mice
Settings: endpoint: median survival time, higher = longer survival
In short: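 Steps: implant the tumour, treat one group with compound and another with vehicle, record survival, then divide treated by control.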

[1] = dose: 12.5 mg/kg/injection, schedule: Q04DX003 (ip), vehicle: saline
[2] = dose: 25.0 mg/kg/injection, schedule: Q04DX003 (ip), vehicle: saline
[3] = dose: 6.25 mg/kg/injection, schedule: Q01DX009 (ip), vehicle: saline with Tween-80
[4] = dose: 12.5 mg/kg/injection, schedule: Q01DX009 (ip), vehicle: saline with Tween-80
[5] = dose: 25.0 mg/kg/injection, schedule: Q01DX009 (ip), vehicle: saline with Tween-80
[6] = dose: 50.0 mg/kg/injection, schedule: Q01DX009 (ip), vehicle: saline with Tween-80
[7] = dose: 50.0 mg/kg/injection, schedule: Q04DX002 (ip), vehicle: saline with Tween-80
[8] = dose: 100.0 mg/kg/injection, schedule: Q04DX002 (ip), vehicle: saline with Tween-80
[9] = dose: 200.0 mg/kg/injection, schedule: Q04DX002 (ip), vehicle: saline with Tween-80
[10] = dose: 8.0 mg/kg/injection, schedule: Q01DX009 (ip), vehicle: saline with Tween-80
[11] = dose: 12.0 mg/kg/injection, schedule: Q01DX009 (ip), vehicle: saline with Tween-80
[12] = dose: 100.0 mg/kg/injection, schedule: Q04DX003 (ip), vehicle: saline with Tween-80
[13] = dose: 200.0 mg/kg/injection, schedule: Q04DX003 (ip), vehicle: saline with Tween-80
[14] = dose: 50.0 mg/kg/injection, schedule: Q01DX009 (ip), vehicle: saline
[15] = dose: 100.0 mg/kg/injection, schedule: Q01DX009 (ip), vehicle: saline
[16] = dose: 200.0 mg/kg/injection, schedule: Q01DX009 (ip), vehicle: saline
[17] = dose: 400.0 mg/kg/injection, schedule: Q04DX003 (ip), vehicle: saline with Tween-80

COc1cc(N2C(N)=NC(N)=NC2(C)C)cc(OC)c1OC
T/C (dose: 6.25 mg/kg/injection, schedule: Q04DX003 (ip), vehicle: saline): 100 % of control
T/C [1]: 115 % of control
T/C [2]: 100 % of control

CCCSc1ncnc2nc(C)[nH]c12
T/C (dose: 0.39 mg/kg/injection, schedule: Q01DX009 (ip), vehicle: saline with Tween-80): 100 % of control
T/C (dose: 0.78 mg/kg/injection, schedule: Q01DX009 (ip), vehicle: saline with Tween-80): 109 % of control
T/C (dose: 1.56 mg/kg/injection, schedule: Q01DX009 (ip), vehicle: saline with Tween-80): 100 % of control and 122 % of control
T/C (dose: 3.13 mg/kg/injection, schedule: Q01DX009 (ip), vehicle: saline with Tween-80): 95 % of control and 100 % of control
T/C [3]: 103 % of control
T/C [4]: 103 % of control

CCCCNC(C)(C)C(SSSC(C)=O)c1ccco1 (stereo not given)
T/C (dose: 3.12 mg/kg/injection, schedule: Q01DX009 (ip), vehicle: saline with Tween-80): 88 % of control
T/C [3]: 111 % of control
T/C [4]: 102 % of control
T/C [5]: 101 % of control and 102 % of control
T/C [6]: 103 % of control

COc1ccc(NC(C)=O)c(/C=N/Nc2ccc([N+](=O)[O-])cc2[N+](=O)[O-])c1
T/C [7]: 89 % of control
T/C [8]: 106 % of control
T/C [9]: 106 % of control

CC(C)C(Br)C(N)=O (stereo not given)
T/C [1]: 104 % of control
T/C [2]: 109 % of control
T/C (dose: 50.0 mg/kg/injection, schedule: Q04DX003 (ip), vehicle: saline): 109 % of control

O=C(Nc1nncs1)c1cnccn1
T/C [7]: 98 % of control
T/C [8]: 97 % of control
T/C [9]: 104 % of control
T/C (dose: 400.0 mg/kg/injection, schedule: Q04DX002 (ip), vehicle: saline with Tween-80): 168 % of control

Nc1cc(C(=O)Nc2ccc(C3=NCCN3)cc2)ccc1C(=O)Nc1ccc(C2=NCCN2)cc1
T/C (dose: 1.4 mg/kg/injection, schedule: Q01DX009 (ip), vehicle: saline with Tween-80): 158 % of control
T/C (dose: 2.2 mg/kg/injection, schedule: Q01DX009 (ip), vehicle: saline with Tween-80): 154 % of control
T/C (dose: 3.3 mg/kg/injection, schedule: Q01DX009 (ip), vehicle: saline with Tween-80): 154 % of control and 200 % of control
T/C (dose: 5.0 mg/kg/injection, schedule: Q01DX009 (ip), vehicle: saline with Tween-80): 191 % of control
T/C [10]: 230 % of control
T/C [11]: 230 % of control
T/C [4]: 230 % of control
T/C (dose: 13.0 mg/kg/injection, schedule: Q04DX003 (ip), vehicle: saline with Tween-80): 170 % of control
T/C (dose: 20.0 mg/kg/injection, schedule: Q04DX003 (ip), vehicle: saline with Tween-80): 208 % of control
T/C [5]: 230 % of control
T/C (dose: 30.0 mg/kg/injection, schedule: Q04DX003 (ip), vehicle: saline with Tween-80): 250 % of control and 181 % of control
T/C (dose: 44.0 mg/kg/injection, schedule: Q04DX003 (ip), vehicle: saline with Tween-80): 272 % of control
T/C [6]: 92 % of control
T/C (dose: 66.0 mg/kg/injection, schedule: Q04DX003 (ip), vehicle: saline with Tween-80): 229 % of control and 272 % of control
T/C [12]: 166 % of control and 204 % of control
T/C (dose: 150.0 mg/kg/injection, schedule: Q04DX003 (ip), vehicle: saline with Tween-80): 100 % of control
T/C [13]: 100 % of control

CC1C(=O)CC(=O)C1=O (stereo not given)
T/C [14]: 100 % of control
T/C [15]: 104 % of control
T/C [16]: 104 % of control

CC1(C)N=C(N)N=C(N)N1c1cccc(CCCCOc2ccccc2)c1
T/C [10]: 150 % of control
T/C [11]: 150 % of control
T/C (dose: 18.0 mg/kg/injection, schedule: Q01DX009 (ip), vehicle: saline with Tween-80): 170 % of control

CCCNC(=O)Nc1cc(C(F)(F)F)ccc1Cl
T/C [12]: 100 % of control
T/C [13]: 100 % of control
T/C [17]: 100 % of control

CCCCCCCCCCC(=O)CCCCC
T/C (dose: 100.0 mg/kg/injection, schedule: Q01DX009 (ip), vehicle: other): 90 % of control
T/C (dose: 200.0 mg/kg/injection, schedule: Q01DX009 (ip), vehicle: other): 100 % of control
T/C (dose: 400.0 mg/kg/injection, schedule: Q01DX009 (ip), vehicle: other): 110 % of control

CN(C)N=Nc1ccccc1C(N)=O
T/C (dose: 22.0 mg/kg/injection, schedule: Q01DX009 (ip), vehicle: saline with Tween-80): 111 % of control
T/C (dose: 26.6 mg/kg/injection, schedule: Q01DX009 (ip), vehicle: saline with Tween-80): 104 % of control
T/C (dose: 33.0 mg/kg/injection, schedule: Q01DX009 (ip), vehicle: saline with Tween-80): 100 % of control
T/C (dose: 40.0 mg/kg/injection, schedule: Q01DX009 (ip), vehicle: saline with Tween-80): 91 % of control
T/C [6]: 111 % of control
T/C (dose: 60.0 mg/kg/injection, schedule: Q01DX009 (ip), vehicle: saline with Tween-80): 120 % of control
T/C (dose: 75.0 mg/kg/injection, schedule: Q01DX009 (ip), vehicle: saline with Tween-80): 161 % of control

N#CC(C#N)=Cc1ccc(Cl)c(Cl)c1
T/C (dose: 25.0 mg/kg/injection, schedule: Q01DX009 (ip), vehicle: Klucel (hydroxypropylcellulose) (HPC)): 115 % of control
T/C (dose: 50.0 mg/kg/injection, schedule: Q01DX009 (ip), vehicle: Klucel (hydroxypropylcellulose) (HPC)): 100 % of control
T/C (dose: 50.0 mg/kg/injection, schedule: Q04DX003 (ip), vehicle: Klucel (hydroxypropylcellulose) (HPC)): 100 % of control
T/C (dose: 100.0 mg/kg/injection, schedule: Q01DX009 (ip), vehicle: Klucel (hydroxypropylcellulose) (HPC)): 120 % of control
T/C (dose: 100.0 mg/kg/injection, schedule: Q04DX003 (ip), vehicle: Klucel (hydroxypropylcellulose) (HPC)): 100 % of control

CCCCN(CCCC)c1ccc(/C=C/c2ccnc3ccccc23)cc1
T/C (dose: 100.0 mg/kg/injection, schedule: Q01DX009 (sc), vehicle: olive oil, sesame oil, peanut oil): 88 % of control
T/C (dose: 100.0 mg/kg/injection, schedule: Q04DX003 (sc), vehicle: olive oil, sesame oil, peanut oil): 88 % of control and 95 % of control
T/C (dose: 200.0 mg/kg/injection, schedule: Q01DX009 (sc), vehicle: olive oil, sesame oil, peanut oil): 88 % of control
T/C (dose: 200.0 mg/kg/injection, schedule: Q04DX003 (sc), vehicle: olive oil, sesame oil, peanut oil): 92 % of control and 95 % of control
T/C (dose: 400.0 mg/kg/injection, schedule: Q01DX009 (sc), vehicle: olive oil, sesame oil, peanut oil): 92 % of control
T/C (dose: 400.0 mg/kg/injection, schedule: Q04DX003 (sc), vehicle: olive oil, sesame oil, peanut oil): 92 % of control and 95 % of control

CS(=O)(=O)c1ncc(Br)cn1
T/C (dose: 50.0 mg/kg/injection, schedule: Q01DX005 (ip), vehicle: saline with Tween-80): 103 % of control
T/C [14]: 111 % of control
T/C (dose: 100.0 mg/kg/injection, schedule: Q01DX005 (ip), vehicle: saline with Tween-80): 109 % of control
T/C [15]: 124 % of control
T/C (dose: 200.0 mg/kg/injection, schedule: Q01DX005 (ip), vehicle: saline with Tween-80): 117 % of control
T/C [16]: 120 % of control
T/C (dose: 400.0 mg/kg/injection, schedule: Q01DX005 (ip), vehicle: saline with Tween-80): 120 % of control

CCOC(=O)C(NC(=O)OCc1ccccc1)(OCc1ccccc1)C(C)C (stereo not given)
T/C [12]: 97 % of control
T/C [13]: 105 % of control
T/C [17]: 94 % of control

Cc1ccccc1C(c1ccccc1C)c1ccccc1C(=O)O
T/C (dose: 100.0 mg/kg/injection, schedule: Q01DX001 (ip), vehicle: Klucel (hydroxypropylcellulose) (HPC)): 113 % of control
T/C [15]: 100 % of control
T/C (dose: 100.0 mg/kg/injection, schedule: Q04DX003 (ip), vehicle: saline): 91 % of control
T/C (dose: 200.0 mg/kg/injection, schedule: Q01DX001 (ip), vehicle: Klucel (hydroxypropylcellulose) (HPC)): 109 % of control
T/C [16]: 104 % of control
T/C (dose: 200.0 mg/kg/injection, schedule: Q04DX003 (ip), vehicle: saline): 100 % of control
T/C (dose: 400.0 mg/kg/injection, schedule: Q01DX001 (ip), vehicle: Klucel (hydroxypropylcellulose) (HPC)): 109 % of control
T/C (dose: 400.0 mg/kg/injection, schedule: Q01DX009 (ip), vehicle: saline): 95 % of control
T/C (dose: 400.0 mg/kg/injection, schedule: Q04DX003 (ip), vehicle: saline): 100 % of control
